As usually defined, the Ki is a measure of affinity in units of concentration, obtained from inhibition or displacement.

One experiment has as its system α1-adrenoceptors. In words: inhibition of [7-methoxy-3H]prazosin binding to α1-adrenoceptors in rat whole cortical tissue. As to conditions: rat whole cortex, 30 min; for % displacement of radio ligand, α1: at 10^-6 M, [7-methoxy-3H]prazosin, 1 µM. The protocol: Whole cortical tissue from the brains of male Charles River CD rats weighing between 150-250 g were homogenised in ice-cold 50 mM Tris-HCl, pH 7.6 (at 25° C.; 1:40 w/v) and centrifuged at 1000 g at 4° C. for 10 minutes. The supernatant was centrifuged at 30,000 g at 4° C. for 10 minutes. The pellet was rehomogenised in 50 mM Tris-HCl, pH 7.6 (1:40 w/v) and centrifuged at 30,000 g at 4° C. for 10 minutes. The final pellet was resuspended in 50 mM Tris-HCl, pH 7.6 (equivalent to 12.5 mg wet weight of tissue/ml) and used immediately in the binding assay. Aliquots (400 μl; equivalent to 5 mg wet weight of tissue/tube) of this suspension were added to tubes containing the ligand (50 μl; 0.1 nM) and distilled water (50 μl; total binding) or phentolamine (50 μl; 5 μM; non-specific binding) or test compound (50 μl; at a single concentration of 10^-6 M or at 10 concentrations ranging from 10^-11 -10^-3 M). The ligand was [7-methoxy-^3 H]prazosin and the mixture was incubated at 30° C. for 30 minutes before the incubation was terminated by rapid filtration.
(§1) The filters were washed with ice-cold Tris-HCl buffer and dried. The filters were punched out into vials, scintillation fluid added and radioactivity determined by liquid scintillation counting. The percentage displacement of specific binding of the tritiated ligand was calculated for the single concentration (10^-6 M) of test compound. Displacement curves were then produced for those compounds which displaced ≥50% of specific binding of the tritiated ligand at 10^-6 M using a range of concentrations of the compound. The concentration which gave 50% inhibition of specific binding (IC50) was obtained from the curve. The inhibition coefficient Ki was then calculated using the formula [formula] in which [ligand] is the concentration of the tritiated ligand used and KD is the equilibrium dissociation constant for the ligand.

In another experiment the target is T1, D2 dopamine receptors (Rattus norvegicus, UniProt P61169).
T1 construct: Striatal tissue from the brains of male Charles River CD rats; from tissue; host or cells: rat striatum membranes
T1 sequence (P61169 whole entry): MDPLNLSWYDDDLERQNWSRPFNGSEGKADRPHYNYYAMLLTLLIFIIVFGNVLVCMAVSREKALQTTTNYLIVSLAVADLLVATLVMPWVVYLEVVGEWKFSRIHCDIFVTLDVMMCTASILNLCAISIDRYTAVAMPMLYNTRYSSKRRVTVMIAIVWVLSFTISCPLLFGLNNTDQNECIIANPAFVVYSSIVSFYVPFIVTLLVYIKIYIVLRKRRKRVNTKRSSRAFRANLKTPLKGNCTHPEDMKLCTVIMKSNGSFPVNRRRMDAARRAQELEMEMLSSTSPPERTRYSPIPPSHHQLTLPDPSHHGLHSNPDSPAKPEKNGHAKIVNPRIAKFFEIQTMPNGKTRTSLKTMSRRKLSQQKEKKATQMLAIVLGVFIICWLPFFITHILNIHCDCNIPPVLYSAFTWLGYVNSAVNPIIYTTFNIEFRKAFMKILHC
Put plainly: inhibition of tritiated (S)-sulpiride binding to D2 dopamine receptors in rat striatal tissue. As to conditions: rat striatum; for inhibition at 1 µM: at 10^-6 M, tritiated (S)-sulpiride, read-out: % displacement of radio ligand, D2. The procedure:
Striatal tissue from the brains of male Charles River CD rats weighing between 140-250 g were homogenised in ice-cold 50 mM Tris-HCl buffer (pH 7.7 when measured at 25° C.) and centrifuged at 40,000 g for 10 minutes. The pellet was resuspended in Tris salts buffer (50 mM Tris-HCl buffer containing 120 mM NaCl, 5 mM KCl, 2 mM CaCl2 and 1 mM MgCl2 with the addition of 6 mM ascorbic acid; pH 7.7 when measured at 25° C.), and again centrifuged at 40,000 g for 10 minutes. The final pellet was stored at -80° C. Before each test the pellet was resuspended in Tris salts buffer (equivalent to 2 mg wet weight of tissue/ml). Aliquots (720 μl; equivalent to 1.44 mg wet weight of tissue/tube) of this suspension were then added to tubes containing the ligand (40 μl; 1 nM) and Tris salts buffer (40 μl; total binding) or spiroperidol (40 μl; 10 nM; non-specific binding) or test compound (40 μl; at a single concentration of 10^-6 M or at 6 concentrations ranging from 10^-11 -10^-4 M). The ligand was tritiated (S)-sulpiride and the mixture was incubated at 4° C. for 40 minutes before the incubation was terminated by rapid filtration.
The filters were washed with ice-cold Tris-HCl buffer and dried. The filters were punched out in to vials, scintillation fluid added and were left for about 20 hours before being counted by scintillation spectrophotometry. The percentage displacement of specific binding of the tritiated ligand was calculated for the single concentration (10^-6 M) of test compound. Displacement curves were then produced over a range of concentrations for those compounds which displaced ≥50% of specific binding of the tritiated ligand at 10^-6 M. The concentration which gave a 50% inhibition of specific binding (IC50) was obtained from the curve. The inhibition coefficient Ki was then calculated using the formula [formula] in [ligand] is the concentration of the tritiated ligand used and KD is the 2 equilibrium dissociation constant for the ligand.

For a further experiment, the target named is T2, 5-HT1A receptors (Rattus norvegicus, UniProt P19327).
T2 construct: Hippocampal tissue from the brains of male Sprague-Dawley rats; from tissue; host or cells: rat hippocampus membranes
T2 sequence (P19327 1-422): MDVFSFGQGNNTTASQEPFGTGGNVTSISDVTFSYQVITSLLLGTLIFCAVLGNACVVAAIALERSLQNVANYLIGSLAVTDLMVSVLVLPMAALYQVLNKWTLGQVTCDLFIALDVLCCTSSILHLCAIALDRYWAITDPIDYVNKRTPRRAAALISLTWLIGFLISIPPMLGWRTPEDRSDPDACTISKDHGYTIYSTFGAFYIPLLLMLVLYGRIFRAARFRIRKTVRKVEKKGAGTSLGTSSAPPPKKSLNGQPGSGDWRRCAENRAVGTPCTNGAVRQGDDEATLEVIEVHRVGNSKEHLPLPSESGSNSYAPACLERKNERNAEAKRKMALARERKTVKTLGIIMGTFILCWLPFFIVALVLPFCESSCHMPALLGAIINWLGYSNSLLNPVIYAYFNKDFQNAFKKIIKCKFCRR
Put plainly: inhibition of [3H]8-OH-DPAT binding to 5-HT1A receptors in rat hippocampal tissue. The note with it: rat hippocampus; for inhibition at 1 µM: at 10^-6 M, [3H]8-OH-DPAT, read-out: % displacement of radio ligand, 5-HT1A. The procedure: Hippocampal tissue from the brains of male Sprague-Dawley rats (Charles River; weight range 150-250 g) was homogenised in ice-cold 50 mM Tris-HCl buffer (pH 7.7 when measured at 25° C., 1:40 w/v) and centrifuged at 30,000 g at 4° C. for 10 minutes. The pellet was rehomogenised in the same buffer, incubated at 37° C. for 10 minutes and centrifuged at 30,000 g at 4° C. for 10 minutes. The final pellet was resuspended in 50 mM Tris-HCl buffer (pH 7.7) containing 4 mM CaCl2, 0.1% L-ascorbic acid and 10 μM pargyline hydrochloride (equivalent to 6.25 mg wet weight of tissue/ml) and used immediately in the binding assay. Aliquots (400 μl; equivalent to 2.5 mg wet weight of tissue/tube) of this suspension were added to tubes containing the ligand (50 μl; 2 nM) and distilled water (50 μl total binding) or 5-HT (50 μl; 10 μM; non-specific binding) or test compound (50 μl; at a single concentration of 10^-6 M or at 10 concentrations ranging from 10^-11 -10^-3 M). The ligand was [^3 H]8-hydroxy-2-(dipropylamino)tetralin ([^3 H]8-OH-DPAT) and the mixture was incubated at 25° C. for 30 minutes before the incubation was terminated by rapid filtration.
as §1

For the molecule `Cc1ccc2c(c1)O[C@@H](CN1CCC(CNC(=O)c3ccc(-n4cccc4)nc3)CC1)CO2` [Example 32, (S)-N-{[1-(7-methyl-1,4-benzodioxan-2-ylmethyl)-4-piperidyl]methyl}-6-(1-pyrrolyl)pyridine-3-carboxamide], the “% displacement of radio ligand, α1” value with α1-adrenoceptors was found to be 71%. Moreover, the inhibition at 1 µM at D2 dopamine receptors is 80%; at 5-HT1A receptors, 92%.
The corresponding values for `CSc1ncccc1C(=O)NCC1CCN(C[C@H]2COc3ccc(Br)cc3O2)CC1` [Example 38, (S)-N-{[1-(7-bromo-1,4-benzodioxan-2-ylmethyl)-4-piperidyl]methyl}-2-(methylthio)pyridine-3-carboxamide] are 51%, 99% and 88%.
On to `O=C(NCC1CCN(C[C@H]2COc3cccc(C(F)(F)F)c3O2)CC1)c1cncc(Br)c1` [Example 49, (S)-5-bromo-N-{[1-(8-trifluoromethyl-1,4-benzodioxan-2-ylmethyl)-4-piperidyl]methyl}pyridine-3-carboxamide], for which the “% displacement of radio ligand, α1” value in the experiment on α1-adrenoceptors is on record as 93%. The inhibition at 1 µM was 99% on D2 dopamine receptors and 88% at 5-HT1A receptors.
The corresponding values for `CSc1ncccc1C(=O)NCC1CCN(C[C@H]2COc3ccc(C)cc3O2)CC1` [Example 33, (S)-N-{[1-(7-methyl-1,4-benzodioxan-2-ylmethyl)-4-piperidyl]methyl}-2-(methylthio)pyridine-3-carboxamide] are 41%, 81% and 81%.
The corresponding values for `O=C(NCC1CCN(C[C@H]2COc3ccc(Cl)cc3O2)CC1)c1ccc(-n2cccc2)nc1` [Example 40, (S)-N-{[1-(7-chloro-1,4-benzodioxan-2-ylmethyl)-4-piperidyl]methyl}-6-(1-pyrrolyl)pyridine-3-carboxamide] are 60%, 91% and 87%.
As to `COc1ncccc1C(=O)NCC1CCN(C[C@H]2COc3ccc(Cl)cc3O2)CC1` [Example 26, (S)-N-{[1-(7-chloro-1,4-benzodioxan-2-ylmethyl)-4-piperidyl]methyl}-2-methoxypyridine-3-carboxamide], the inhibition constant Ki on α1-adrenoceptors ([7-methoxy-3H]prazosin 0.1 nM, 30° C.) is 130 nM; on D2 dopamine receptors (tritiated (S)-sulpiride 1 nM, 4° C., 40 min), 43 nM; on 5-HT1A receptors ([3H]8-OH-DPAT 2 nM, 25° C., 30 min), 7 nM.
`O=C(c1ccccn1)N1CCC(CNC[C@H]2COc3ccc(Cl)cc3O2)CC1` [Example 29, 4-[N-(7-chloro-1,4-benzodioxan-2-ylmethyl)aminomethyl]-1-(2-pyridylcarbonyl)piperidine]: the “% displacement of radio ligand, α1” value in the experiment on α1-adrenoceptors is 85%. The inhibition at 1 µM on 5-HT1A receptors turned out to be 95%.
For the molecule `Cc1ccc2c(c1)O[C@@H](CN1CCC(CNC(=O)c3cccnc3C)CC1)CO2` [Example 31, (S)-2-methyl-N-{[1-(7-methyl-1,4-benzodioxan-2-ylmethyl)-4-piperidyl]-methyl}pyridine-3-carboxamide], in the experiment with α1-adrenoceptors, the “% displacement of radio ligand, α1” value stood at 41%. The inhibition at 1 µM at D2 dopamine receptors came to 68%; on 5-HT1A receptors it was 63%.
On to `CSc1ncccc1C(=O)NCC1CCN(C[C@H]2COc3cccc(Cl)c3O2)CC1` [Example 51], for which, in the experiment on α1-adrenoceptors, the “% displacement of radio ligand, α1” value was determined as 98%. In addition, the inhibition at 1 µM at D2 dopamine receptors turned out to be 101%; at 5-HT1A receptors, 95%.
The corresponding values for `O=C(NCC1CCN(C[C@H]2COc3ccc(Br)cc3O2)CC1)c1ccc(-n2cccc2)nc1` [Example 37, (S)-N-{[1-(7-bromo-1,4-benzodioxan-2-ylmethyl)-4-piperidyl]methyl}-6-(1-pyrrolyl)pyridine-3-carboxamide] are 66%, 97% and 85%.
The corresponding values for `O=C(NCC1CCN(C[C@H]2COc3cccc(C(F)(F)F)c3O2)CC1)c1ccc(-n2cccc2)nc1` [Example 47, (S)-6-(1-pyrrolyl)-N-{[1-(8-trifluoromethyl-1,4-benzodioxan-2-ylmethyl)-4-piperidyl]methyl}pyridine-3-carboxamide] are 94%, 100% and 75%.
The matching figures for `Cc1ccc2c(c1)O[C@@H](CN1CCC(CNC(=O)c3cncc(Br)c3)CC1)CO2` [Example 34, (S)-5-bromo-N-{[1-(7-methyl-1,4-benzodioxan-2-ylmethyl)-4-piperidyl]-methyl}pyridine-3-carboxamide]: 68%, 86% and 87%.
In the case of `CSc1ncccc1C(=O)NCC1CCN(C[C@H]2COc3ccc(Cl)cc3O2)CC1` [Example 41, (S)-N-{[1-(7-chloro-1,4-benzodioxan-2-ylmethyl)-4-piperidyl]methyl}-2-(methylthio)pyridine-3-carboxamide], in the experiment on α1-adrenoceptors, the “% displacement of radio ligand, α1” value was determined as 29%. Also, the results for the inhibition at 1 µM on D2 dopamine receptors and on 5-HT1A receptors were 70% and 68%, respectively.
Consider `O=C(NCC1CCN(C[C@H]2COc3ccc(Br)cc3O2)CC1)c1cccnc1` [Example 35, (S)-N-{[1-(7-bromo-1,4-benzodioxan-2-ylmethyl)-4-piperidyl]methyl}pyridine-3-carboxamide], for which the “% displacement of radio ligand, α1” value in the experiment with α1-adrenoceptors came to 73%. Also, the results for the inhibition at 1 µM on D2 dopamine receptors and on 5-HT1A receptors were 101% and 95%, respectively.

Source of the values: patent US5935973A, “Heterocyclcarboxamide derivatives and their use as therapeutic agents” (Knoll Aktiengesellschaft, priority 1995, dated 1999).
